In patent US8048893B2, “Pyrazolyl derivatives, preparation process and intermediates of this process as medicinal products and pharmaceutical compositions containing them” (Aventis Pharma SA, priority 2003, dated 2011):

melting point | SMILES
173 °C (dec.) | Cl.Cl.Oc1nn(CCN2CC3CCC2C3)cc1-c1ccccc1 (stereo not shown)
189 °C | CC(Cn1cc(-c2ccccc2)c(O)n1)N(C)C.Cl.Cl (stereo not shown)
222 °C | Cc1c(-c2ccccc2)c(O)nn1CCN1CCCCC1.Cl.Cl
228 °C (dec.) | Cl.Cl.Oc1nn(CCN2CCCCCC2)cc1-c1ccccc1
121 °C | CS(=O)(=O)Nc1nn(CCN2CCCCC2)cc1-c1ccccc1 [Example 25, N-[4-Phenyl-1-(2-piperidin-1-ylethyl)-1H-pyrazol-3-yl]-methanesulfonamide]
132 °C | CN1CCCC(Cn2cc(-c3ccccc3)c(O)n2)C1 (stereo not shown) [Example 27, 1-(1-Methylpiperidin-3-ylmethyl)-4-phenyl-1H-pyrazol-3-ol]
168 °C | NC(=O)c1ccccc1-c1cnn(CCN2CCCCC2)c1 [Example 72, 2-[1-(2-Piperidin-1-ylethyl)-1H-pyrazol-4-yl]benzamide]
